Results published in US20220008402A1, “INCREASED E-CADHERIN EXPRESSION OR ACTIVITY FOR THE TREATMENT OF INFLAMMATORY DISEASES” (The Cleveland Clinic Foundation, priority 2020, published 2022).
“Also recorded” adds a separate entry of the source.

Assays:
E-cadherin = conditions: literature reports; cited from earlier work
[1] = test system: HT-29 cF8 cell monolayers; assay: Epithelial barrier permeability in vitro (TEER, FITC-dextran flux), steady state; assay type: cell-based, human; conditions: 10 μM
Description: (§1) FIG. 1: E-cadherin-enhancing drugs decrease ionic permeability of model colonic epithelial cell monolayers. Confluent T84 (A), HT-29cF8 (B) and SK-0015 (C) cell monolayers were treated for indicated times with either vehicle, E-cadherin upregulator (ECU, 10 μM), or ML327 (10 μM). Transepithelial electrical resistance (TEER) of the cell monolayers was measured before and during the drug treatment. Data is presented as mean ±SE (n=3); *P<0.05.
(§2) FIG. 2: E-cadherin-enhancing drugs decrease colonic epithelial permeability to large molecules. Confluent T84 (A), HT-29cF8 (B) and SK-C015 (C) cell monolayers were treated with either vehicle, ECU, or ML327, as described in the FIG. 1 legend. Trans-monolayer flux of FITC-dextran was determined at the end of the drug treatment. Data is presented as mean ±SE (n=3); **P<0.05 ***P<0.01.
(§3) Transepithelial electrical resistance (TEER) of cultured T84, HT-29 and SK-C015 intestinal epithelial cell monolayers was measured using an EVOMX voltohmmeter (World Precision Instruments, Sarasota, Fla.). Cells were plated on collagen-coated transwell filters (pore size 3 μm, Thermo-Fisher). The resistance of cell-free collagen-coated filters was subtracted from each experimental point. An in vitro dextran flux assay was performed by a following commonly-used protocol. Intestinal epithelial cell monolayers growing on transwell filters were apically exposed to 1 mg/ml of FITC-labeled dextran (4,000 Da) in HEPES-buffered Hanks balanced salt solution (HBSS). After 120 min of incubation, HBSS samples were collected from the lower chamber, and FITC fluorescence intensity was measured using a Victor^3 V plate reader (Perkin Elmer, Waltham, Mass.) with excitation and emission wavelengths 485 and 544 nm, respectively. After subtracting the fluorescence of dextran-free HBSS the amount of FITC dextran translocated across the epithelial cell monolayer was calculated based on a calibration curve using Prism 5 software (GraphPad, La Jolla, Calif.).
(§4) One set of experiments examined the effects of E-cadherin upregulator (ECU) and ML327 on the barrier properties of normal model intestinal epithelial cell monolayers. Three different human colonic epithelial cell lines, namely, T84, SK-0015 and HT-29 cF8 cells, were used. Cells were plated on collagen-coated transwell filters and allowed to reach confluency and differentiate for 5-7 days after plating. Thereafter, cell monolayers were exposed to either ECU (10 μM), ML327 (10 μM) or vehicle (DMSO). Transepithelial electrical resistance (TEER) was measured before and at different times after addition of E-cadherin-enhancing drugs. A transepithelial flux of FITC-dextran was examined at the end of the drug exposure to evaluate epithelial permeability to large uncharged molecules.

SK-0015 cell monolayers = assay: as above; assay type: cell-based, human; conditions: 10 μM
Description: as §1, §2, §3, §4

T84 cell monolayers [2] = assay: as above; assay type: cell-based, human; conditions: 10 μM
Description: as §1, §2, §3, §4

T84 cell monolayers [3] = assay: Immunoblotting of signaling molecules after multiple wounding; assay type: cell-based, human; conditions: 10 μM pretreatment 24 h; lysates 12 and 24 h post-wounding
Description: Confluent T84 cell monolayers were pretreated with either vehicle, ECU (10 μM), or ML327 (10 μM), for 24 h, and were subjected to multiple wounding. Total cell lysates were collected at 12 and 24 h post-wounding, and the expression of different signaling molecules was determined by immunoblotting. Representative immunoblots (A) and densitometric quantification of protein band intensities from three independent experiments (B) are shown. Data are presented as a mean ±SE (n=3); *p<0.05; **p<0.01.
To prepare total cell lysates, epithelial cell monolayers were scraped and homogenized using a Dounce homogenizer in RIPA buffer (20 mM Tris, 50 mM NaCl, 2 mM EDTA, 2 mM EGTA, 1% sodium deoxycholate, 1% Triton X-100 (TX-100), and 0.1% SDS, pH 7.4) containing protease inhibitor cocktail and phosphatase inhibitor cocktails 2 and 3 (Sigma-Aldrich). The obtained total cell lysates were cleared by centrifugation (20 min at 14,000×g), diluted with 2×SDS sample loading buffer and boiled. SDS-polyacrylamide gel electrophoresis was conducted using a standard protocol with equal amounts of total protein (10 or 20 μg) loaded per each lane. The separated proteins were transferred to nitrocellulose membranes and the membranes were blocked with 5% non-fat milk. […]

T84 cell monolayers [4] = assay: Wound healing assay; assay type: cell-based, human; conditions: 10 μM pretreatment 24 h, migration 24-48 hours
Description: FIG. 8: E-cadherin-enhancing drug promote collective migration of intestinal epithelial cells. Confluent T84 cell monolayers were pretreated with either vehicle, ECU (10 μM) or ML327 (10 μM) for 24 hours. Afterwards, cell monolayers were wounded and allowed to migrate into wound area in the presence of the drugs. Cell monolayers were photographed and wound closure was calculated at the indicated times. Data is presented as mean ±SE (n=3); **P<0.05, ***P<0.01.
Confluent epithelial cell monolayers were mechanically wounded by making a thin scratch wound with a 200 μl pipette tip. The bottom of the well was marked to define the position of the wound and the monolayers were supplied with fresh cell culture medium. The images of a cell-free area at the marked region were acquired at the indicated times after wounding using an inverted bright field microscope equipped with a camera. The percentage of wound closure was calculated using an Image J software (NIH, Bethesda, Md.).
Finally, the effects of E-cadherin-enhancing drugs on epithelial restitution (wound healing) were examined. This is an important question given the fact that epithelial wounds are frequently formed in inflamed intestinal mucosa of IBD patients and wound healing is necessary to restore the integrity of the gut barrier and to achieve remission of chronic inflammatory diseases. […]

T84 cell monolayers [5] = assay: Cytokine (TNFα/IFNγ)-induced disruption of the epithelial barrier (TEER, FITC-dextran flux); assay type: cell-based, human; conditions: 10 μM pretreatment 24 h, then TNFα 10 ng/ml + IFNγ 50 ng/ml, 48 h
Description: (§5) Confluent T84 cell monolayers were pretreated with either vehicle, or ECU (10 μM) for 24 h. Afterwards, cells were exposed to a combination of TNFα (10 ng/ml) and IFNγ (50 ng/ml) with and without ECU. (A) TEER was measured at the indicated times. (B) FITC-dextran flux was examined after 48 h incubation with cytokines. Data is presented as mean ±SE (n=3); ***P<0.001.
as §5, with “ML327” for “ECU”, “hours.” for “h.”, “ML327.” for “ECU.”, “(n=3); **P<0.05,” for “(n=3);”
as §3
A combination of two cytokines were selected: tumor necrosis factor alpha (TNFα, 10 ng/ml) and interferon-gamma (IFNγ, 50 ng/ml), which are known to compromise barrier integrity and trigger apical junction disassembly in cultured epithelial cell monolayers and intestinal mucosa in mice. Indeed, 48 hour incubation of well-differentiated T84 cell monolayers with TNFα and IFNγ caused a dramatic decrease in TEER (FIGS. 3A, 4A) and increase in transepithelial dextran flux (FIGS. 3B, 4B), which indicates the increase in barrier permeability. […] Next, it was examined if ECU protects epithelial adherens junctions (AJ) and tight junctions (TJ) from cytokine-induced disassembly. Immunofluorescence labeling of a specific AJ marker, E-cadherin, and a TJ marker, ZO-1, was used to visualize structure of different junctional complexes. […]

[6] = at the end of the drug exposure
[7] = rapid (within 24 h) and sustained (up to 96 h), vs vehicle (DMSO)

Nc1ncn([C@@H]2O[C@H](CO)[C@@H](O)[C@H]2O)c(=O)n1 [5-Axacytidine]
E-cadherin expression (E-cadherin): stimulate E-cadherin expression

CN(C)C(=S)NN=C(c1ccccn1)c1ccccn1 [Dp44mT, Di(2-pyridyl)ketone 4,4-dimethyl-3-thiosemicarbazone]
E-cadherin expression (E-cadherin): stimulate E-cadherin expression

CN(C(=S)NN=C(c1ccccn1)c1ccccn1)C1CCCCC1 [DpC, di(2-pyridyl)ketone 4-cyclohexyl-4-methyl-3-thiosemicarbazone]
E-cadherin expression (E-cadherin): stimulate E-cadherin expression

O=C(NCCCNC(=O)c1cccnc1O)c1cc(-c2ccccc2)on1 [ML327, N-(3-(2-hydroxynicotinamido)propyl)-5-phenylisoxazole-3-carboxamide]
Transepithelial flux of FITC-dextran [1, 6]: significantly inhibited FITC-dextran flux
Transepithelial electrical resistance (TEER) ([1]; up to 96 h, vs vehicle (DMSO)): transiently increased TEER for the first 48 hours with its subsequent decrease at later times
Transepithelial flux of FITC-dextran (SK-0015 cell monolayers; [6]): significantly inhibited FITC-dextran flux
Transepithelial electrical resistance (TEER) (SK-0015 cell monolayers; [7]): increase in TEER
Transepithelial flux of FITC-dextran (T84 cell monolayers [2]; at the end of the drug exposure, T84): significantly inhibited FITC-dextran flux
Transepithelial electrical resistance (TEER) (T84 cell monolayers [2]; [7]): increase in TEER
Expression of signaling molecules (pro-migratory signaling) (T84 cell monolayers [3]): activation of pro-migratory signaling events
Cell migration during wound healing (wound closure) (T84 cell monolayers [4]): significantly increased migration
Cytokine-induced decrease in TEER (T84 cell monolayers [5]): prevents cytokine-induced disruption; also recorded: markedly attenuated
Cytokine-induced increase in transepithelial FITC-dextran flux (T84 cell monolayers [5]): prevents cytokine-induced disruption; also recorded: markedly attenuated

CCCCCCCCCCCCC/C=C/[C@@H](O)[C@@H](N)COP(=O)(O)O [Sphingosine-1-Phosphate]
E-cadherin expression (E-cadherin): stimulate E-cadherin expression

CN(Cc1cnc2nc(N)nc(N)c2n1)c1ccc(C(=O)N[C@@H](CCC(=O)O)C(=O)O)cc1 [methotrexate]
E-cadherin expression (E-cadherin): stimulated E-cadherin expression
